The results in this text go back to PubChem BioAssay AID588644 (The Scripps Research Institute Molecular Screening Center, 2011).

Active and inactive are the calls of the source.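 The calls were made as follows: active = rise or fall in EGR1 growth-response protein of at least 30% versus solvent-only treated cells; inactive = EGR1 protein change under 30% either way.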

The assay has as its target Early growth response protein 1 (Homo sapiens) (UniProt P18146). The experiment in a line: EGR1 protein level reduction in HCT116 cells, late-stage follow-up, counter-screen for KLF5 inhibitor project, cell-based, HCT116 colorectal carcinoma, chemiluminescent western blot (AID 588644). Conditions: 24 h, at 10 µM, active compounds read high.
Turning to `CN(C(=O)COC(=O)/C=C/c1cccc([N+](=O)[O-])c1)C1CCS(=O)(=O)C1` (stereo not drawn), the inhibition is 28.4% (inactive).
Take `CN(C(=O)CNC(=O)/C=C/c1cccc(Cl)c1)C1CCS(=O)(=O)C1` (stereo not drawn): the inhibition was 18.6% (inactive).
For `CN(C(=O)CNC(=O)/C=C/c1cccc(Cl)c1)C1CCS(=O)(=O)CC1` the value was -3.53% (inactive).
